Data from patent US6906205B2, “Spiro and dispiro 1,2,4-trioxolane antimalarials” (Medicines for Malaria Venture MMV, priority 2002, dated 2005).
Converted amounts (≈) assume the structure as drawn.

Experiments:
[1] = tested on: P. falciparum K1 strain (Thailand resistant to chloroquine); experiment: semiautomated microdilution assay, [3H]-hypoxanthine incorporation, K1 strain; assay type: cell-based, Plasmodium falciparum; conditions: for IC50 (ng/ml) K1: K1 strain, 72 h incubation; for IC50: Plasmodium falciparum, K1, 72 h, read-out: IC50 (ng/ml) K1
In short: (§1)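 Asynchronous stock cultures → intraerythrocytic forms; semiautomated microdilution; IC50 by logit regression.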

[2] = tested on: P. falciparum NF54 strain (sensitive to standard antimalarials); experiment: semiautomated microdilution assay, [3H]-hypoxanthine incorporation, NF54 strain; assay type: cell-based, Plasmodium falciparum; conditions: for IC50 (ng/ml) NF54: NF54 strain, 72 h incubation; for IC50: Plasmodium falciparum, NF54, 72 h, read-out: IC50 (ng/ml) NF54
In short: as §1

[3] = tested on: ANKA strain of P. berghei; experiment: single dose STI in vivo screen in infected mice; parameters: species or system Plasmodium berghei; conditions: for Activity (%) po / Activity (%) sc / Activity (%) SSVpo: percent reduction in parasitemia day 3 post-infection, mice; for Activity (%) po / Survival (days) po: single 10 mg/kg po in 3% ethanol and 7% Tween 80; for Activity (%) sc / Survival (days) sc: single 10 mg/kg sc in 3% ethanol and 7% Tween 80; for Survival (days) po / Survival (days) sc / Survival (days) SSVpo: untreated control 5.6 ± 0.3; for Activity (%) SSVpo: single po dose in standard suspending vehicle (SSV); for Survival (days) SSVpo: single po dose in SSV
In short: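 Groups of 3-5 Moro SPF or NMRI mice infected with the ANKA strain of P. berghei received a single dose of trioxolane on day one post-infection. The compound was given in 3% ethanol and 7% Tween 80 or in SSV (0.5% w/v CMC, 0.5% v/v benzyl alcohol, 0.4% v/v Tween 80, 0.9% w/v sodium chloride in water). Antimalarial activity was scored as percent reduction in parasitemia on day three and as survival time versus untreated controls. Survival to day 30 counted as cure.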

Row | Compound | IC50 (ng/ml) K1 [1] | IC50 (ng/ml) NF54 [2] | Activity (%) po [3] | Activity (%) sc [3] | Survival (days) po [3] | Survival (days) sc [3] | IC50 [1] [ng/mL] | IC50 [2] [ng/mL] | Activity (%) SSVpo [3] | Survival (days) SSVpo [3]
1 | O=C(CCl)N1CCC2(CC1)OOC1(O2)C2CC3CC(C2)CC1C3 (stereo not shown) [OZ87] | 3.6 ng/mL (≈ 10.5 nM) | 4.4 ng/mL (≈ 12.9 nM) | 22% | 53% | 5.7 days | 6.0 days | – | – | – | –
2 | O=C(OCCC1CCC2(CC1)OOC1(O2)C2CC3CC(C2)CC1C3)c1ccc([N+](=O)[O-])cc1 (stereo not shown) [OZ88] | 5.7 ng/mL (≈ 12.5 nM) | 4.2 ng/mL (≈ 9.18 nM) | 62% | 99.1% | 6.0 days | 11.7 days | – | – | – | –
3 | OCCC1CCC2(CC1)OOC1(O2)C2CC3CC(C2)CC1C3 (stereo not shown) [OZ89] | – | – | 94% | 99.8% | 7.3 days | 8.7 days | 0.3 (≈ 0.973 nM) | 0.75 (≈ 2.43 nM) | 89% | 6.7 days
4 | CC1(O)CCC2(CC1)OOC1(O2)C2CC3CC(C2)CC1C3 (stereo not shown) [OZ90] | – | – | 89% | 99% | 7.0 days | 8.0 days | 0.44 (≈ 1.49 nM) | 0.84 (≈ 2.85 nM) | 95% | 7.0 days
5 | CC1(C)C2CCC1(CS(=O)(=O)N1CCC3(CC1)OOC1(O3)C3CC4CC(C3)CC1C4)C(=O)C2 (stereo not shown) [OZ91] | 1.4 ng/mL (≈ 2.92 nM) | 0.42 ng/mL (≈ 0.876 nM) | 20% | 85% | 5.7 days | 7.3 days | – | – | 0% | 6.0 days
6 | CCCCS(=O)(=O)N1CCC2(CC1)OOC1(O2)C2CC3CC(C2)CC1C3 (stereo not shown) [OZ92] | 1.6 ng/mL (≈ 4.15 nM) | 0.40 ng/mL (≈ 1.04 nM) | 81% | 99.98% | 6.7 days | 10.0 days | – | – | 35% | 6.3 days
7 | O=C(CN1C(=O)c2ccccc2C1=O)N1CCC2(CC1)OOC1(O2)C2CC3CC(C2)CC1C3 (stereo not shown) [OZ93] | 3.3 ng/mL (≈ 7.29 nM) | 0.92 ng/mL (≈ 2.03 nM) | 57% | 100% | 6.7 days | 13.3 days | – | – | 3% | 6.0 days
8 | c1ccc2c(c1)-c1ccccc1C21OOC2(O1)C1CC3CC(C1)CC2C3 (stereo not shown) [OZ94] | 57 ng/mL (≈ 165 nM) | 28 ng/mL (≈ 80.8 nM) | 21% | 11% | 6.0 days | 5.3 days | – | – | 0% | 5.7 days
9 | O=[N+]([O-])c1ccc(C2(c3ccccc3)OOC3(O2)C2CC4CC(C2)CC3C4)cc1 (stereo not shown) [OZ95] | 2.8 ng/mL (≈ 7.12 nM) | 1.3 ng/mL (≈ 3.3 nM) | 31% | 49% | 6.0/6.0/6.0 days | 6.0/6.0/6.0 days | – | – | 0% | 6.0/6.0/6.0 days
10 | O=[N+]([O-])c1cc(C2(c3ccc(Cl)c([N+](=O)[O-])c3)OOC3(O2)C2CC4CC(C2)CC3C4)ccc1Cl (stereo not shown) [OZ96] | 8.4 ng/mL (≈ 16.6 nM) | > 10 ng/mL | 12% | 19% | 5.7 days | 5.3 days | – | – | 14% | 5.7 days
11 | O=C1c2ccccc2C(=O)N1CC1(c2ccccc2)CCC2(CC1)OOC1(O2)C2CC3CC(C2)CC1C3 (stereo not shown) [OZ97] | 2.2 ng/mL (≈ 4.4 nM) | 1.8 ng/mL (≈ 3.6 nM) | 59% | 66% | 6.7 days | 7.0 days | – | – | 2% | 5.3 days
12 | COC(=O)C1(c2ccccc2)CCC2(CC1)OOC1(O2)C2CC3CC(C2)CC1C3 (stereo not shown) [OZ98] | 2.3 ng/mL (≈ 5.77 nM) | 0.9 ng/mL (≈ 2.26 nM) | 72% | 77% | 6.3 days | 7.3 days | – | – | 11% | 5.3 days
13 | O=C(O)C1(c2ccccc2)CCC2(CC1)OOC1(O2)C2CC3CC(C2)CC1C3 (stereo not shown) [OZ99] | 77 ng/mL (≈ 200 nM) | 27 ng/mL (≈ 70.2 nM) | 30% | 36% | 6.3 days | 6.3 days | – | – | 40% | 5.7 days
14 | CC(=O)Nc1ccc(S(=O)(=O)N2CCC3(CC2)OOC2(O3)C3CC4CC(C3)CC2C4)cc1 (stereo not shown) [OZ104] | 1.4 ng/mL (≈ 3.03 nM) | 0.50 ng/mL (≈ 1.08 nM) | 56% | 99.98% | 6.3 days | 12.0 days | – | – | 0% | 5.7 days
15 | COC(=O)c1ccc(C2(c3ccc(C(=O)OC)c(C(=O)OC)c3)OOC3(O2)C2CC4CC(C2)CC3C4)cc1C(=O)OC (stereo not shown) [OZ106] | 2.2 ng/mL (≈ 3.79 nM) | 1.7 ng/mL (≈ 2.93 nM) | 0/0/0% | 0/0/0% | 5.3 days | 5.3 days | – | – | 0/0/0% | 5.0 days
16 | O=C(O)c1nccnc1C(=O)N1CCC2(CC1)OOC1(O2)C2CC3CC(C2)CC1C3 (stereo not shown) [OZ109] | 21 ng/mL (≈ 50.5 nM) | 24 ng/mL (≈ 57.8 nM) | 2% | 24% | 5.7 days | 6.3 days | – | – | 0% | 5.7 days
17 | CCOC(=O)N1C2CCC1CC1(C2)OOC2(O1)C1CC3CC(C1)CC2C3 (stereo not shown) [OZ110] | 5.3 ng/mL (≈ 14.6 nM) | 2.1 ng/mL (≈ 5.78 nM) | 50% | 97.97% | 6.7 days | 7.7 days | – | – | 0% | 5.3 days
18 | O=C(O)COCC(=O)N1CCC2(CC1)OOC1(O2)C2CC3CC(C2)CC1C3 (stereo not shown) [OZ112] | >10/>10 ng/ml | >10/>10 ng/ml | 6% | 36% | 5.7 days | 6.3 days | – | – | 0% | 5.7 days
19 | O=S(=O)(c1cccc2cccnc12)N1CCC2(CC1)OOC1(O2)C2CC3CC(C2)CC1C3 (stereo not shown) [OZ114] | 3.7 ng/mL (≈ 8.1 nM) | 2.2 ng/mL (≈ 4.82 nM) | 0% | 99.64% | 5.7 days | 8.7 days | – | – | 0% | 6.0 days
